{
  "source": "patent US9856232B1",
  "about": "“Dihydropyrimidinone derivatives” (KING SAUD UNIVERSITY, priority 2017, dated 2018)",
  "assay_type_in_all_cases": "in vivo, Albino Wistar rats",
  "key": {"[1]": {"system": "Gastric lesions induced by necrotizing agents (80% ethanol, 0.2 mol/L NaOH or 25% NaCl)", "test": "Gastric lesions induced by necrotizing agents (cytoprotection)", "conditions": "i.p, 30 min before necrotizing agent, mean ± SE"}, "[2]": {"system": "gastric wall mucus in stomach tissue, change induced by 80% ethanol", "test": "Determination of gastric wall mucus (GWM)", "conditions": "i.p, 80% ethanol-treated rats, mean ± SE", "protocol": "(§1) Albino Wistar rats of either sex, approximately the same age, weighing 150 to 200 g and fed on a diet of standard chow were used in this study. They were randomly divided into experimental groups of six rats each. Compounds (N-1 to N-18) 12.5, 25, and 50 mg/kg were given orally in the anti-ulcer studies and intraperitoneally for gastric secretion evaluation. The rats were sacrificed, and the stomachs removed and opened along the greater curvature, After washing with saline, the gastric lesions were quantified by a person unaware of the treatments. The animal study protocol was approved by the Research and Ethics Committee of the Experimental Animal Care Society, College of Pharmacy, King Saud University, Riyadh, Saudi Arabia.\nDetermination of gastric wall mucus (GWM): Gastric wall mucus was determined according to the modified procedure. The glandular segment of the stomach was separated from the rumen of the stomach, weighed, and transferred immediately to 10 mL of 0.1% w/v Alcian blue solution (in […] sucrose solution buffered with […] sodium acetate at pH 5. Tissue was stained for 2 hours in Alcian blue, and excess dye was removed by two successive rinses with 10 mL of […] sucrose, firstly after 15 minutes and then after 45 minutes. Dye complexed with the gastric wall mucus was extracted with 10 ml of […] magnesium chloride which was intermittently shaken for 1 minute at 30 minute intervals for 2 hours. Four milliliters of blue extract were then vigorously shaken with an equal volume of diethyl ether. The resulting emulsion was centrifuged at 4000 r/min for 10 minutes and the absorbance of the aqueous layer was recorded at 580 nm. The quantity of Alcian blue extracted per gram of wet glandular tissue was then calculated. Table 6 provides the effect of compounds on the change in gastric wall mucus in stomach tissue induced by 80% ethanol (mean±SE)."}, "[3]": {"system": "gastric mucosa of rats treated with 80% Ethanol", "test": "Histopathological evaluation of gastric tissue", "conditions": "50 mg/kg; FIG. 15B-15F", "protocol": "Histopathological evaluation: Gastric tissue samples were fixed in neutral buffered formalin for 24 hours. Sections of gastric tissue were histopathologically examined to study the ulcerogenic and/or anti-ulcerogenic activity of compounds (N-3, N-8, N-11, and N-15). The tissues were fixed in 10% buffered formalin and processed using a VIP tissue processor. The processed tissues were embedded in paraffin blocks and sections about […] thick were cut using an American optical rotary microtome. These sections were stained with haematoxylin and eosin using routine procedures. The slides were examined microscopically for pathomorphological changes such as congestion, hemorrhage, edema, and erosions using an arbitrary scale for severity assessment of these changes (FIGS. 3-14)."}, "[4]": {"system": "Gastric lesions induced by 80% ethanol", "test": "Gastric lesions induced by ethanol (ulcer index by severity scores)", "conditions": "Rattus norvegicus, po, vs 80% EtOH group, read-out: Gastric lesions induced by 80% ethanol, % change; for inhibition in vivo at 12.5 mg/kg: compound 12.5 mg/kg; for inhibition in vivo at 25 mg/kg: compound 25 mg/kg; for inhibition in vivo at 50 mg/kg: compound 50 mg/kg", "protocol": "as §1\nGastric lesions induced by ethanol: Albino rats of either sex weighing between (150-200 g) are divided into groups. The animals were fasted for 24 hours with free access to water. Animals were given test drugs or standard drug. One hour later 1 mL/200 gm of 80% ethanol is administered orally to each animal. The animals were anaesthetized 1 hour latter with anesthetic ether and stomach was incised along the greater curvature and ulceration was scored. The number of ulcers and the length of each ulcer were measured. Ulcer index was calculated using severity scores. The mucosal damage was examined by means of a magnifying glass. For each stomach the mucosal damage was assessed according to the following scoring system: 0.5 redness; 1.0 spot ulcers; 1.5 hemorrhagic streaks; 2.0 ulcers<3, but≦5; 3.0 ulcers>5. Table 1 provides the effect of compounds on gastric lesions induced by 80% ethanol (mean±SE)."}, "[5]": {"system": "total protein in stomach tissue, induced by 80% ethanol", "test": "Total protein in stomach tissue", "conditions": "mean ± SE"}, "[6]": {"system": "Hypothermic restraint stress-induced intraluminal bleeding and gastric lesion", "test": "Hypothermic restraint stress-induced ulcers", "parameters": "Gastric Lesion Ulcer Index: scale not given here", "conditions": "hypothermic restraint 3 h, mean ± SE"}, "[7]": {"system": "Indomethacin-induced gastric mucosal lesions", "test": "Gastric lesions induced by Indomethacin", "parameters": "scale not given here", "conditions": "i.p, 30 min before Indomethacin 30 mg/kg, mean ± SE", "description": "as §1, with “Compounds (N-1 to N-18) 12.5, 25, and 50 mg/kg were given orally in the anti-ulcer studies and intraperitoneally for gastric secretion evaluation.” left out\nGastric lesions induced by Indomethacin: Indomethacin was suspended in 1.0% carboxymethylcellulose (CMC) in water (6 mg/mL) and administered orally to the 36 hour fasted rats at a dose of 30 mg/kg body weight. Control rats were treated similarly with an equivalent amount of vehicle. […] The animals were sacrificed 6 hours after treatment. The stomachs were excised, rinsed with normal saline and examined for ulceration. Table 3 provides the effect of compounds on Indomethacin-induced gastric mucosal lesions (mean±SE)."}, "[8]": {"conditions": "dose 12.5, 80% ethanol-treated rats"}, "[9]": {"conditions": "dose 25, 80% ethanol-treated rats"}, "[10]": {"conditions": "dose 50, 80% ethanol-treated rats"}},
  "note": "Marks after values point to notes of the source that are not given here.",
  "data": [
    {"smiles": "COc1ccc(C2NC(=O)NC=C2C(=O)c2ccc(N3CCCCC3)cc2)c(OC)c1OC", "note": "(stereo not shown) [Compound N-15, 4-(2,3,4-Trimethoxyphenyl)-5-[4-(piperidin-1-yl)benzoyl]-3,4-dihydropyrimidin-2(1H)-one]", "values": [
      {"measurement": "Ulcer Index, 0.2 mol/L NaOH", "setting": "[1]; 12.5 mg/kg", "value": "3.50 ± 0.22"},
      {"measurement": "Ulcer Index, 25% NaCl", "setting": "[1]; 12.5 mg/kg", "value": "3.66 ± 0.33"},
      {"measurement": "Ulcer Index, 80% EtOH", "setting": "[1]; 12.5 mg/kg", "value": "4.66 ± 0.33"},
      {"measurement": "Ulcer Index, 0.2 mol/L NaOH", "setting": "[1]; 25 mg/kg", "value": "2.16 ± 0.30"},
      {"measurement": "Ulcer Index, 25% NaCl", "setting": "[1]; 25 mg/kg", "value": "2.66 ± 0.33"},
      {"measurement": "Ulcer Index, 80% EtOH", "setting": "[1]; 25 mg/kg", "value": "2.66 ± 0.33"},
      {"measurement": "Ulcer Index, 0.2 mol/L NaOH", "setting": "[1]; 50 mg/kg", "value": "1.33 ± 0.42"},
      {"measurement": "Ulcer Index, 25% NaCl", "setting": "[1]; 50 mg/kg", "value": "1.66 ± 0.33"},
      {"measurement": "Ulcer Index, 80% EtOH", "setting": "[1]; 50 mg/kg", "value": "2.16 ± 0.30"},
      {"measurement": "Gastric Wall Mucus", "setting": "[2]; 12.5 mg/kg", "value": "231.78 ± 4.77*^b μg/g"},
      {"measurement": "Gastric Wall Mucus", "setting": "[2]; 25 mg/kg", "value": "248.09 ± 7.69**^b μg/g"},
      {"measurement": "Gastric Wall Mucus", "setting": "[2]; 50 mg/kg", "value": "275.32 ± 5.37***^b μg/g"},
      {"measurement": "Gastric section, effect on gastric mucosa (histology)", "setting": "[3]", "value": "intact normal mucosa"},
      {"measurement": "inhibition in vivo at 12.5 mg/kg", "setting": "[4]", "value": 35.4, "unit": "%"},
      {"measurement": "inhibition in vivo at 25 mg/kg", "setting": "[4]", "value": 54.8, "unit": "%"},
      {"measurement": "inhibition in vivo at 50 mg/kg", "setting": "[4]", "value": 67.7, "unit": "%"},
      {"measurement": "Total Protein", "setting": "[5]; [8]", "value": "71.45 ± 1.43*^b g/L"},
      {"measurement": "Total Protein", "setting": "[5]; [9]", "value": "81.43 ± 3.65***^b g/L"},
      {"measurement": "Total Protein", "setting": "[5]; [10]", "value": "96.60 ± 1.18***^b g/L"},
      {"measurement": "Gastric Lesion Ulcer Index", "setting": "[6]; 12.5 mg/kg", "value": "25.66 ± 1.08"},
      {"measurement": "Intraluminal Bleeding Score", "setting": "[6]; 12.5 mg/kg", "value": "2.16 ± 0.30"},
      {"measurement": "Gastric Lesion Ulcer Index", "setting": "[6]; 25 mg/kg", "value": "16.66 ± 0.33"},
      {"measurement": "Intraluminal Bleeding Score", "setting": "[6]; 25 mg/kg", "value": "1.66 ± 0.21"},
      {"measurement": "Gastric Lesion Ulcer Index", "setting": "[6]; 50 mg/kg", "value": "12.33 ± 0.84"},
      {"measurement": "Intraluminal Bleeding Score", "setting": "[6]; 50 mg/kg", "value": "1.33 ± 0.33"},
      {"measurement": "Ulcer Index, indomethacin-induced gastric mucosal lesions", "setting": "[7]; 12.5 mg/kg", "value": "26.33 ± 1.30"},
      {"measurement": "Ulcer Index, indomethacin-induced gastric mucosal lesions", "setting": "[7]; 50 mg/kg", "value": "14.50 ± 1.64"}
    ]},
    {"smiles": "O=C1NC=C(C(=O)c2ccc(N3CCCCC3)cc2)C(c2ccc([N+](=O)[O-])cc2)N1", "note": "(stereo not shown) [Compound N-3, 4-(4-Nitrophenyl)-5-[4-(piperidin-1-yl)benzoyl]-3,4-dihyropyrimidin-2(1H)-one]", "values": [
      {"measurement": "Ulcer Index, 0.2 mol/L NaOH", "setting": "[1]; 12.5 mg/kg", "value": "4.50 ± 0.22.***"},
      {"measurement": "Ulcer Index, 25% NaCl", "setting": "[1]; 12.5 mg/kg", "value": "5.16 ± 0.47"},
      {"measurement": "Ulcer Index, 80% EtOH", "setting": "[1]; 12.5 mg/kg", "value": "6.83 ± 0.30"},
      {"measurement": "Ulcer Index, 0.2 mol/L NaOH", "setting": "[1]; 25 mg/kg", "value": "2.66 ± 0.33"},
      {"measurement": "Ulcer Index, 25% NaCl", "setting": "[1]; 25 mg/kg", "value": "2.83 ± 0.30"},
      {"measurement": "Ulcer Index, 80% EtOH", "setting": "[1]; 25 mg/kg", "value": "4.16 ± 0.30"},
      {"measurement": "Ulcer Index, 0.2 mol/L NaOH", "setting": "[1]; 50 mg/kg", "value": "1.83 ± 0.40"},
      {"measurement": "Ulcer Index, 25% NaCl", "setting": "[1]; 50 mg/kg", "value": "1.66 ± 0.33"},
      {"measurement": "Ulcer Index, 80% EtOH", "setting": "[1]; 50 mg/kg", "value": "3.00 ± 0.36"},
      {"measurement": "Gastric Wall Mucus", "setting": "[2]; 12.5 mg/kg", "value": "242.08 ± 4.03*^b μg/g"},
      {"measurement": "Gastric Wall Mucus", "setting": "[2]; 25 mg/kg", "value": "241.66 ± 6.91**^b μg/g"},
      {"measurement": "Gastric Wall Mucus", "setting": "[2]; 50 mg/kg", "value": "256.18 ± 8.39***^b μg/g"},
      {"measurement": "Gastric section, effect on gastric mucosa (histology)", "setting": "[3]", "value": "intact mucosa with mild ulceration"},
      {"measurement": "inhibition in vivo at 12.5 mg/kg", "setting": "[4]", "value": 33.3, "unit": "%"},
      {"measurement": "inhibition in vivo at 25 mg/kg", "setting": "[4]", "value": 53.3, "unit": "%"},
      {"measurement": "inhibition in vivo at 50 mg/kg", "setting": "[4]", "value": 60, "unit": "%"},
      {"measurement": "Total Protein", "setting": "[5]; [8]", "value": "58.68 ± 3.19*^b g/L"},
      {"measurement": "Total Protein", "setting": "[5]; [9]", "value": "74.65 ± 3.79*^b g/L"},
      {"measurement": "Total Protein", "setting": "[5]; [10]", "value": "95.80 ± 1.51***^b g/L"},
      {"measurement": "Gastric Lesion Ulcer Index", "setting": "[6]; 12.5 mg/kg", "value": "24.16 ± 1.70"},
      {"measurement": "Intraluminal Bleeding Score", "setting": "[6]; 12.5 mg/kg", "value": "2.83 ± 0.30"},
      {"measurement": "Gastric Lesion Ulcer Index", "setting": "[6]; 25 mg/kg", "value": "17.66 ± 0.76"},
      {"measurement": "Intraluminal Bleeding Score", "setting": "[6]; 25 mg/kg", "value": "1.50 ± 0.22"},
      {"measurement": "Gastric Lesion Ulcer Index", "setting": "[6]; 50 mg/kg", "value": "13.83 ± 0.60"},
      {"measurement": "Intraluminal Bleeding Score", "setting": "[6]; 50 mg/kg", "value": "1.16 ± 0.30"},
      {"measurement": "Ulcer Index, indomethacin-induced gastric mucosal lesions", "setting": "[7]; 12.5 mg/kg", "value": "29.83 ± 1.66"},
      {"measurement": "Ulcer Index, indomethacin-induced gastric mucosal lesions", "setting": "[7]; 25 mg/kg", "value": "20.50 ± 1.52"},
      {"measurement": "Ulcer Index, indomethacin-induced gastric mucosal lesions", "setting": "[7]; 50 mg/kg", "value": "12.66 ± 1.28"}
    ]}
  ]
}
